Results: ChEMBL document CHEMBL4339220, “Scaffold Morphing Approach To Expand the Toolbox of Broad-Spectrum Antivirals Blocking Dengue/Zika Replication” (ACS Med Chem Lett, 2019)

Key:
dengue virus type 2 [1] = test: Antiviral activity against Dengue virus type 2 NGC infected in African green monkey Vero B cells assessed as reduction in virus yield; assay type: functional, organism-based, Thailand/NGS-C/1944
[2] = Cytotoxicity in African green monkey Vero B cells assessed as reduction in cell viability by MTS assay; assay type: cell-based; conditions: chlorocebus aethiops
[3] = Selectivity index, ratio of CC50 for African green monkey Vero B cells to EC50 for Dengue virus type 2 NGC infected in African green monkey Vero B cells; assay type: toxicity; conditions: read-out: Ratio CC50/EC50
Dengue virus = test: Antiviral activity against Dengue virus; assay type: functional, organism-based
Zika virus [4] = test: Antiviral activity against Zika virus; assay type: functional, organism-based
Zika virus [5] = test: Antiviral activity against Zika virus MR766 infected in African green monkey Vero E6 cells assessed as reduction in virus yield; assay type: functional, organism-based; conditions: MR766, Vero C1008
[6] = Cytotoxicity in African green monkey Vero E6 cells assessed as reduction in cell viability by MTS assay; assay type: cell-based; conditions: chlorocebus sabaeus, Vero E6 cells (Vero C1008)
[7] = Selectivity index, ratio of CC50 for African green monkey Vero E6 cells to EC50 for Zika virus MR766 infected in African green monkey Vero E6 cells; assay type: toxicity, Vero C1008; conditions: read-out: Ratio CC50/EC50
dengue virus type 2 [8] = test: Potency index, ratio of EC50 for RBV to EC50 for test compound for antiviral activity against Dengue virus type 2 NGC infected in African green monkey Vero B cells assessed as reduction in virus yield; assay type: functional, Thailand/NGS-C/1944
Zika virus [9] = test: Potency index, ratio of EC50 for 7DMA to EC50 for test compound for antiviral activity against Zika virus MR766 infected in African green monkey Vero E6 cells assessed as reduction in virus yield; assay type: functional, Vero C1008
[10] = Dengue virus, Thailand/NGS-C/1944, Vero B, read-out: EC50

Row | SMILES | CC50 [2] [µM] | EC50 (dengue virus type 2 [1]; [10]) [µM] | selectivity ratio [3] | EC50 (Zika virus [5]) [µM] | CC50 [6] [µM] | other results
1 | NS(=O)(=O)c1ccc(Nc2nc(N3CCOCC3)nc3[nH]cnc23)cc1 | 373 |  |  |  |  | EC50 (dengue virus type 2 [1]): Not Active
2 | OCCNc1nc(Nc2cccc(O)c2)c2nc[nH]c2n1 | > 175 | 7.4 | > 24 |  |  | 
3 | O=C1OCc2c(Nc3cccc(O)c3)nc(N3CCOCC3)nc21 | > 128 | > 128 |  |  |  | 
4 | Oc1cccc(Nc2nc(N3CCOCC3)nc3[nH]cnc23)c1 | 122 | 40.6 | 3 |  |  | EC50 (Dengue virus): 40.6 µM
5 | O=C1c2nc(N3CCOCC3)nc(Nc3cccc(O)c3)c2CN1CCc1ccccc1 | > 116 | 70.7 |  |  |  | 
6 | Oc1cccc(Nc2nc(NCCOc3ccccc3)nc3[nH]cnc23)c1 | 69.4 | 10 | 6.9 | 16.7 | > 124 | EC50 (Dengue virus): 10 µM; EC50 (Zika virus [4]): 16.7 µM; selectivity ratio [7]: > 7.4
7 | O=C(NCCOc1ccccc1)c1nc(N2CCOCC2)nc(Nc2cccc(O)c2)c1CO | 73.3 | 62.1 | 1.2 |  |  | 
8 | O=C1c2nc(N3CCOCC3)nc(Nc3cccc(O)c3)c2CN1CCOc1ccccc1 | > 100 | 20.6 | > 4.9 |  |  | 
9 | COc1ccc(CN2Cc3c(Nc4cccc(O)c4)nc(N4CCOCC4)nc3C2=O)cc1 | > 112 | > 112 |  |  |  | 
10 | CCCCCOCc1c(Nc2ccc(S(N)(=O)=O)cc2)nc(N2CCOCC2)nc1C(=O)NCCOc1ccccc1 | > 83.5 | 1.82 | > 46 | 2.04 | > 83.5 | selectivity ratio [7]: > 41; Ratio EC50 (dengue virus type 2 [8]): 6; Ratio EC50 (Zika virus [9]): 3
11 | CCCCCOCc1c(Nc2cccc(O)c2)nc(N2CCOCC2)nc1C(=O)NCc1ccc(C(F)(F)F)cc1 | 32.8 | 10.9 | 3 | 13.9 | 48.2 | selectivity ratio [7]: 3.5
12 | O=C(NCCc1ccccc1)c1nc(N2CCOCC2)nc(Nc2cccc(O)c2)c1CO | 64.5 | 20.7 | 3.1 |  |  | 
13 | NS(=O)(=O)c1ccc(Nc2nc(N3CCOCC3)nc(C(=O)NCc3ccccc3)c2CO)cc1 | > 100 | > 100 |  |  |  | 
14 | COc1ccc(CNC(=O)c2nc(N3CCOCC3)nc(Nc3cccc(O)c3)c2CO)cc1 | > 107 | > 107 |  |  |  | 
15 | CCCCCOCc1c(Nc2ccc(S(N)(=O)=O)cc2)nc(N2CCOCC2)nc1C(=O)NCc1ccccc1 | > 87.9 | 1 | > 88 | > 87.9 | > 87.9 | 
16 | O=C(NCc1ccccc1)c1nc(N2CCOCC2)nc(Nc2cccc(O)c2)c1CO | > 115 | > 115 |  |  |  | 
17 | CCCCCOCc1c(Nc2ccc(S(N)(=O)=O)cc2)nc(N2CCOCC2)nc1C(=O)NCc1ccc(OC)cc1 | > 83.5 | > 83.5 |  |  |  | 
18 | COc1ccc(CN2Cc3c(Nc4ccc(S(N)(=O)=O)cc4)nc(N4CCOCC4)nc3C2=O)cc1 | > 97.9 | > 97.9 |  |  |  | 
19 | CCCCCOCc1c(Nc2cccc(O)c2)nc(N2CCOCC2)nc1C(=O)NCc1ccccc1 | 39.4 | 20.7 | 1.9 | 57.8 | > 98.9 | selectivity ratio [7]: > 1.7
20 | NS(=O)(=O)c1ccc(Nc2nc(N3CCOCC3)nc3c2CN(CCOc2ccccc2)C3=O)cc1 | > 97.9 | 12.2 | > 8 | > 97.9 | > 97.9 | 
21 | O=C1c2nc(N3CCOCC3)nc(Nc3cccc(O)c3)c2CN1Cc1ccccc1 | > 120 | 100 |  |  |  | 
22 | NS(=O)(=O)c1ccc(Nc2nc(N3CCOCC3)nc3c2CN(Cc2ccccc2)C3=O)cc1 | > 104 | 21.6 | > 4.8 | > 104 | > 104 | 
23 | NS(=O)(=O)c1ccc(Nc2nc(N3CCOCC3)nc3c2COC3=O)cc1 | > 128 | > 128 |  |  |  | 
24 | C[C@@]1(O)[C@H](O)[C@@H](CO)O[C@H]1n1ccc2c(N)ncnc21 [BETA-2'-C-METHYL-7-DEAZA-ADENOSINE] |  |  |  | 5.7 | > 357 | EC50 (Zika virus [4]): 9.6 µM; selectivity ratio [7]: > 64
25 | NC(=O)c1ncn([C@@H]2O[C@H](CO)[C@@H](O)[C@H]2O)n1 [RIBAVIRIN] | > 409 | 11.9 | > 34 |  |  | EC50 (Dengue virus): 11.9 µM; EC50 (Zika virus [4]): 12 µM
